The record followed here is ChEMBL document CHEMBL3616422, “A novel family of diarylpyrimidines (DAPYs) featuring a diatomic linker: Design, synthesis and anti-HIV activities” (Bioorg Med Chem, 2015).

pEC50, pIC50: −log10 of the molar value.

Data set [1] has as its target Human immunodeficiency virus type 1 reverse transcriptase (Human immunodeficiency virus 1, UniProt Q72547). Nature of the data set: Inhibition of recombinant HIV1 Reverse transcriptase p66/p51 using poly (rA)-oligo (dT) as template primer after 40 mins by spectrofluorometric analysis.
The nature of data set [2]: Selectivity index, ratio of CC50 for uninfected human MT4 cells to EC50 for wild type HIV 1 3B infected in human MT4 cells. The format is toxicity, cell-based. As to conditions: uninfected and infected with wild type HIV-1 3B, read-out: Ratio CC50/EC50.
Data set [3] deals with Human immunodeficiency virus 1. Nature of the data set: Antiviral activity against wild type HIV 1 3B infected in human MT4 cells assessed as protection against virus-induced cytopathogenicity after 5 days by MTT assay. The format is functional, organism-based. Particulars: Human immunodeficiency virus 1, 3B, MT4, 120 h. Background: Damage to the host cells serves as the signal in cytopathic effect assays.

In data set [4] the test system is Human immunodeficiency virus 2. The data set is described as follows: Antiviral activity against wild type HIV 2 ROD infected in human MT4 cells assessed as protection against virus-induced cytopathogenicity after 5 days by MTT assay. The data set is classed as functional, organism-based. As to conditions: Human immunodeficiency virus 2, ISOLATE ROD, MT4, 120 h.

Data set [5] can be described thus: Cytotoxicity against uninfected human MT4 cells assessed as decrease in cell viability after 5 days by MTT assay. The data set is classed as cell-based.
The subject of data set [6] is Human immunodeficiency virus 1. The data set is described as follows: Antiviral activity against HIV 1 RES056 harboring reverse transcriptase K103N/Y181C double mutant infected in human MT4 cells assessed as protection against virus-induced cytopathogenicity after 5 days by MTT assay. The data set is classed as functional, organism-based. As to conditions: Human immunodeficiency virus 1, RES056, MT4, 120 h.

By pIC50 is commonly meant the negative decadic logarithm of the IC50, by convention in mol/L. As a reminder, the pEC50 is −log10 of the EC50, conventionally taken in molar units. In general, EC50 refers to the concentration needed to bring the measured effect to its halfway point. For orientation: CC50 means the concentration that lowers cell viability or growth by half. Regarding `COc1cccc(CNc2ccnc(Nc3ccc(C#N)cc3)n2)c1`, in data set [1], the pIC50 is 7.74. For the same compound, in data set [2], the selectivity ratio amounted to 518. Moreover, in data set [3], the pEC50 is 8.35. Moreover, the EC50 in data set [4] and in data set [6] was over 0.79 µg/mL throughout. Moreover, the 50% cytotoxic concentration (CC50) at 120 h in data set [5] was 2380 nM.

In the case of `N#Cc1ccc(Nc2nccc(NCc3cccc(Cl)c3)n2)cc1`, the pIC50 in data set [1] is 7.74. Besides, the selectivity ratio in data set [2] was found to be 175. The pEC50 in data set [3] is 7.92. For the same compound, the EC50 in data set [4] and in data set [6] was over 0.7 µg/mL in each case. Besides, the CC50 at 120 h in data set [5] is 2080 nM.

Take `N#Cc1ccc(Nc2nccc(NCc3ccc(F)cc3)n2)cc1`: the pIC50 in data set [1] was 6.42. Further, the selectivity ratio in data set [2] was 23. Besides, in data set [3], the pEC50 was 7.14. In addition, the EC50 in data set [4] and in data set [6] was over 0.55 µg/mL throughout. Also, the CC50 at 120 h in data set [5] was 1720 nM.

Take `N#Cc1ccc(Nc2nccc(NCc3ccc(Br)cc3)n2)cc1`: the pIC50 in data set [1] was 7.54. In addition, in data set [2], the selectivity ratio came out at 85. In data set [3], the pEC50 was 7.40. In addition, the EC50 in data set [4] and in data set [6] was over 1.28 µg/mL throughout. Moreover, the CC50 at 120 h in data set [5] amounted to 3370 nM.

Take `N#Cc1ccc(Nc2nccc(NCc3ccc(Cl)cc3)n2)cc1`: the negative logarithm of the IC50 (pIC50) in data set [1] is 7.32. Also, the selectivity ratio in data set [2] amounted to 71. The pEC50 in data set [3] was 7.32. The concentration giving a half-maximal response (EC50) in data set [4] and in data set [6] was over 1.1 µg/mL each time. The CC50 at 120 h in data set [5] stood at 3280 nM.

As for `Cc1ccc(CNc2ccnc(Nc3ccc(C#N)cc3)n2)cc1C`, in data set [1], the pIC50 was 8.05. The selectivity ratio in data set [2] turned out to be 1190. Also, the pEC50 in data set [3] was 8.52. Also, the EC50 in data set [4] and in data set [6] was over 1.21 µg/mL in each case. Moreover, in data set [5], the CC50 at 120 h was 3670 nM.

For `N#Cc1ccc(Nc2nccc(NCc3ccc(C(F)(F)F)cc3)n2)cc1`, the pIC50 in data set [1] is 7.15. The selectivity ratio in data set [2] turned out to be 24. Further, the negative logarithm of the EC50 (pEC50) in data set [3] is 6.90. Also, the EC50 in data set [4] and in data set [6] was over 1.11 µg/mL throughout. Further, the CC50 at 120 h in data set [5] was 3010 nM.

With `Cc1ccnc2c1NC(=O)c1cccnc1N2C1CC1` [NEVIRAPINE], the CC50 at 120 h in data set [5] was over 15000 nM. In addition, in data set [6], the EC50 was at least 2.02 µg/mL.

On to `N#Cc1ccc(Nc2nccc(NCc3ccccc3Br)n2)cc1`, for which the pIC50 in data set [1] was 7.15. In addition, in data set [2], the selectivity ratio turned out to be 4680. Besides, the pEC50 in data set [3] was 7.38. Moreover, the EC50 in data set [4] and in data set [6] was over 74.1 µg/mL each time. Also, the CC50 at 120 h in data set [5] stood at 195000 nM.

`N#Cc1ccc(Nc2nccc(NCc3ccccc3C(F)(F)F)n2)cc1`: the pIC50 in data set [1] is 5.81. In addition, the selectivity ratio in data set [2] turned out to be 107. Besides, the pEC50 in data set [3] is 5.98. Besides, the EC50 in data set [4] and in data set [6] was over 41.6 µg/mL throughout. In addition, in data set [5], the CC50 at 120 h was determined as 113000 nM.

In the case of `N#Cc1ccc(Nc2nccc(NCc3ccccc3F)n2)cc1`, the pIC50 in data set [1] is 7.80. Further, the selectivity ratio in data set [2] is 1080. Moreover, in data set [3], the pEC50 was 8.59. The EC50 in data set [4] and in data set [6] was over 0.88 µg/mL throughout. Further, in data set [5], the CC50 at 120 h worked out at 2760 nM.

`N#Cc1ccc(Nc2nccc(NCc3cccc(Br)c3)n2)cc1`: the pIC50 in data set [1] was 7.62. The selectivity ratio in data set [2] worked out at 86. In addition, the pEC50 in data set [3] is 7.69. For the same compound, the EC50 in data set [4] and in data set [6] was over 0.67 µg/mL in each case. The CC50 at 120 h in data set [5] worked out at 1760 nM.

For `N#Cc1ccc(Nc2nccc(NCc3ccccc3Cl)n2)cc1`, the pIC50 in data set [1] was 7.62. Moreover, the selectivity ratio in data set [2] was found to be 18600. Besides, the pEC50 in data set [3] is 7.83. Also, the EC50 in data set [4] and in data set [6] was over 92.3 µg/mL throughout. For the same compound, the CC50 at 120 h in data set [5] was found to be 275000 nM.

In the case of `N#Cc1ccc(Nc2nccc(NCc3cccc(C(F)(F)F)c3)n2)cc1`, in data set [1], the negative logarithm of the IC50 (pIC50) was 6.91. The selectivity ratio in data set [2] was determined as 9. The pEC50 in data set [3] is 6.69. Besides, the EC50 in data set [4] and in data set [6] was over 0.71 µg/mL throughout. Moreover, in data set [5], the CC50 at 120 h worked out at 1920 nM.

Consider `N#Cc1ccc(Nc2nccc(NCc3ccccc3)n2)cc1`, for which the pIC50 in data set [1] was 7.70. For the same compound, the selectivity ratio in data set [2] is 294. In addition, in data set [3], the pEC50 was 8.28. Moreover, the EC50 in data set [4] and in data set [6] was over 0.48 µg/mL throughout. In data set [5], the CC50 at 120 h was 1590 nM.

For the compound `N#Cc1ccc(Nc2nccc(NCc3cccc(F)c3)n2)cc1`, the pIC50 in data set [1] is 7.80. Further, the selectivity ratio in data set [2] was determined as 333. For the same compound, the pEC50 in data set [3] is 8.36. The EC50 in data set [4] and in data set [6] was over 0.45 µg/mL each time. Also, the CC50 at 120 h in data set [5] was 1410 nM.

Turning to `N#Cc1ccc(Nc2nccc(NCc3ccc(F)cc3F)n2)cc1`, the pIC50 in data set [1] was 7.25. Further, the selectivity ratio in data set [2] turned out to be 245. Also, the pEC50 in data set [3] is 7.77. Moreover, the EC50 in data set [4] and in data set [6] was over 1.41 µg/mL throughout. For the same compound, the CC50 at 120 h in data set [5] is 4180 nM.

`Cc1cc(C#N)cc(C)c1Oc1nc(Nc2ccc(C#N)cc2)nc(N)c1Br` [ETRAVIRINE]: the CC50 at 120 h in data set [5] was over 4590 nM.

In the case of `COc1ccc(CNc2ccnc(Nc3ccc(C#N)cc3)n2)cc1`, the pIC50 in data set [1] was 7.07. Also, in data set [2], the selectivity ratio stood at 60. Besides, the pEC50 in data set [3] was 7.41. Moreover, the EC50 in data set [4] and in data set [6] was over 0.78 µg/mL throughout. In addition, the cytotoxic concentration (CC50) at 120 h in data set [5] was 2350 nM.

For `COc1ccccc1CNc1ccnc(Nc2ccc(C#N)cc2)n1`, in data set [1], the pIC50 is 6.03. For the same compound, in data set [2], the selectivity ratio worked out at 937. Moreover, the pEC50 in data set [3] was 7.06. The EC50 in data set [4] and in data set [6] was over 27.3 µg/mL each time. Further, in data set [5], the CC50 at 120 h stood at 82400 nM.

As for `Cc1ccc(CNc2ccnc(Nc3ccc(C#N)cc3)n2)cc1`, the pIC50 in data set [1] was 7.89. In addition, in data set [2], the selectivity ratio is 297. Besides, the negative-log EC50 (pEC50) in data set [3] is 8.09. The EC50 in data set [4] and in data set [6] was over 0.79 µg/mL in each case. The 50% cytotoxic concentration (CC50) at 120 h in data set [5] came out at 2500 nM.

As to `O=C1Nc2ccc(Cl)cc2[C@@](C#CC2CC2)(C(F)(F)F)O1` [EFAVIRENZ], the pEC50 in data set [3] is 8.20. Moreover, the CC50 at 120 h in data set [5] is over 6340 nM.
